This note sets out measurements from patent US20180085460A1, “METHODS OF TREATING PROSTATITIS” (Aquinox Pharmaceuticals (Canada) Inc., priority 2016, published 2018).

Format in all cases: in vivo
For test [1], the system named is carrageenan-induced pelvic pain in male Sprague-Dawley rats. In words: Previous study: carrageenan-induced pelvic pain, AQX-1125 3, 10 and 30 mg/kg. The source says: An animal model of inflammation-induced pelvic pain for inflammatory CP/CPPS was developed and validated using intraprostatic (i.prost.) injection of carrageenan in male Sprague-Dawley rats (adapted from Radhakrishnan, R. and Nallu, R. S., 2009. Development and characterization of a novel animal model of prostate inflammation-induced chronic pelvic pain, Inflammopharmacology, 17: 23-28). This animal model was characterized by both referred mechanical allodynia (decreased mechanical threshold in response to innocuous von Frey forces) and referred mechanical hyperalgesia (increased nociceptive scores in response to noxious von Frey forces) (Augé C. et al., 2012, Nociceptive measures in chronic prostatitis: a model of inflammation-induced pelvic pain in rats, 14th World Congress on Pain (Milan, Italy)).

Test [2] relates to carrageenan-induced prostatitis model in male Sprague-Dawley rats. In words: Pelvic pain (von Frey filaments) in carrageenan-induced prostatitis model. The protocol:
Animals were acclimatized to the laboratory conditions for at least 3 days before the start of experiments. Rats were housed in groups of 2 in polysulfone type Sealsafe plus GR900 cages (Tecniplast, Lyon, France) on a bed of wood chips with free access to food and water ad libitum. Species appropriate environmental enrichment was added to the cages. The animal house was maintained under artificial lighting 7:00 a.m. to 7:00 p.m. in a controlled ambient temperature of 22±2° C., and relative humidity maintained at 55±10%.
Mechanical stimulation was performed using von Frey filaments of different forces.
For each day of administration, the stock solution was allowed to equilibrate to room temperature under stirring, for at least 30 min.
Carrageenan was purchased from Sigma-Aldrich. Carrageenan (prepared fresh each day of injection) was dissolved in sterile physiological saline at a final concentration of 30 mg/mL (w/v).
Seven experimental groups of 10 animals were included in this study as described in the table below.
At D0, D+1, D+3 and D+7 administrations were performed 2 h prior to von Frey testing. […] On the morning of each experimental day, rats were weighed and administrations were performed at a volume of 5 mL/kg.
(§1) Surgical procedures were performed in morning, as follows: anaesthesia was induced by 5% isoflurane and maintained with 2.5% isoflurane for the duration of the procedure. The surgical area (lower abdomen above the penis) and the scrotal skin were shaved. An incision was made in the skin and abdominal wall to expose both ventral lobes of the prostate gland. Carrageenan (30 mg/mL) was injected in both right and left ventral lobes of the prostate (˜12.5 μL per lobe).
Control rats were injected with physiological saline under the same experimental conditions as carrageenan (i.e. i.prost., ˜12.5 μL per lobe).
After i.prost. injection, the wounds in both muscles were closed using absorbable suture and the skin layers were closed using permanent suture.
Pelvic pain was evaluated in a non-blinded manner by applying 6 von Frey filaments of increasing forces (0.16, 0.4, 0.6, 1, 1.4 and 2 g) to the scrotum area, with an interval of 5 seconds between each filament.
Prior to testing, the scrotal skin area designated for mechanical stimulation of each animal was shaved. Animals were placed on a raised wire mesh floor under individual transparent Plexiglas boxes and acclimatized for at least 30 min before starting the von Frey test. Filaments were then applied 1-2 seconds through the mesh floor with enough strength to cause the filament to slightly bend. Each filament was tested 3 times with an interval of 5 seconds between each application.
Nociceptive behavioral scores to von Frey filaments were assessed just before saline or carrageenan injection, in order to obtain basal values (D0), and at defined time points (D+1, D+3 and D+7) after saline or carrageenan injection.
Nociceptive behaviors were scored for each animal and each filament as follows: […]

Test [3] concerns ventral prostate lobes of carrageenan-injected male Sprague-Dawley rats. In words: Ventral prostate lobes weight 7 days after carrageenan i.prost. injection. Conditions: AQX-1125 0.3, 1, 3 or 10 mg/kg p.o.; seven days after carrageenan injection. The protocol:
The whole prostate and ventral prostate lobes were weighed using a Scout® Pro balance (OHAUS, Nänikon, Switzerland).
AQX-1125 (0.3, 1, 3 and 10 mg/kg) or saline vehicle were administered orally (p.o.) once a day from D−3 to D+7 for a total of 11 administrations. At D0, D+1, D+3 and D+7 administrations were performed 2 h prior to von Frey testing. […] On the morning of each experimental day, rats were weighed and administrations were performed at a volume of 5 mL/kg.
as §1
After blood sampling, rats were sacrificed by cervical dislocation and the whole prostates were rapidly collected and weighed. Then both ventral prostate lobes were dissected and weighed together.

For test [4], the system named is carrageenan-induced prostatitis model in male Sprague-Dawley rats. As to the kind of experiment: Pelvic pain (von Frey filaments) in carrageenan-induced prostatitis model. This is another data set of the same source.
[5] abbreviates: Ibuprofen 300 mg/kg p.o. once at D+3, 1 h prior to testing, p<0.001.

As for `C=C1CC[C@H]2[C@H](CN)[C@@H]([C@@]3(C)CC[C@H](O)C[C@@H]3CO)CC[C@]12C` [AQX-1125, (1S,3S,4R)-4-((4R,7aS)-4-(aminomethyl)-7a-methyl-1-methyleneoctahydro-1H-inden-5-yl)-3-(hydroxymethyl)-4-methylcyclohexanol], the “anti-nociceptive properties on carrageenan-induced pelvic pain” value in test [1] (AQX-1125 3, 10 and 30 mg/kg p.o. once a day during 11 days) is recorded as “strong anti-nociceptive properties”; in test [2] (AQX-1125 repeated oral treatments once a day during 11 days at 0.3, 1 and 3 mg/kg) it was “strong anti-nociceptive properties”. The “dose at which maximal effect was reached” value in test [1] (doses tested 3, 10 and 30 mg/kg p.o.) was determined as 3 mg/kg; in test [2] (AQX-1125 p.o. once a day, doses tested 0.3, 1, 3 and 10 mg/kg), 3 mg/kg. For the same molecule, the “nociceptive threshold vs vehicle” value in test [2] (AQX-1125 10 mg/kg p.o. once a day, D+1 p>0.05, D+3 and D+7 p<0.05) is “reached the significance level only at day 3 and 7”; in test [2] (AQX-1125 0.3, 1 and 3 mg/kg p.o. once a day, day 1, 3 and 7 post-carrageenan, p<0.05), “significantly and dose-dependently increased the nociceptive threshold”. In addition, the “AUC (0.16-2 g) of nociceptive scores vs vehicle” value in test [2] (AQX-1125 10 mg/kg p.o., D+1 p>0.05, D+3 p<0.01, D+7 p<0.05) was “a significant effect was observed only at day 3 and 7”; in test [2] (AQX-1125 0.3, 1 and 3 mg/kg p.o., all tested time-points, p<0.01) it was “significant decreases in AUC (0.16-2 g) were observed”. The “nociceptive scores vs vehicle” value in test [2] (AQX-1125 0.3, 1, 3 and 10 mg/kg p.o., all tested time-points (D+1, D+3, D+7)) is reported as “decreases in nociceptive scores were observed”. Moreover, the “significance of effect on nociceptive scores” value in test [2] (AQX-1125 all doses, 10 mg/kg at D1 p=0.0638) was “reached significance, except for the 10 mg/kg dose at D1”. Also, in test [2] (AQX-1125 beyond 3 mg/kg (10 mg/kg p.o.)), the “anti-nociceptive properties beyond the optimal dose” value is listed as “less pronounced anti-nociceptive properties”. Also, the carrageenan-induced pelvic pain entry in test [2] (AQX-1125 daily oral treatments at 0.3, 1 and 3 mg/kg) was “significant and dose-related decreases in carrageenan-induced pelvic pain”. Also, the “optimal dose for pain management” value in test [2] (rat model of carrageenan-induced chronic prostatitis, p.o.) turned out to be 3 mg/kg. For the same molecule, the “ventral prostate lobes weight as a ratio of whole prostate weight” value in test [3] is given as “had no effect on ventral prostate lobes weights”. In test [3], the “ventral prostate lobes weight expressed in mg” value is “had no effect on ventral prostate lobes weights”.
Take `CC(C)Cc1ccc(C(C)C(=O)O)cc1` (racemic) [Ibuprofen, (RS)-2-(4-(2-methylpropyl)phenyl)propanoic acid]: in test [4] (setting [5]), the “nociceptive scores vs vehicle” value is “decreases in nociceptive scores” and the “nociceptive threshold vs vehicle” value is recorded as “a significant increase in the nociceptive threshold was observed”. Besides, in test [4] (Ibuprofen 300 mg/kg, 1 h after oral administration), the carrageenan-induced pelvic pain entry is on record as “alleviated carrageenan-induced pelvic pain”.
